Values quoted from earlier work in patent US20250066691A1, “SOLVENT-BASED DETERGENT COMPOSITIONS AND METHODS FOR HYDROPHOBIC SOIL REMOVAL” (ECOLAB USA INC., priority 2023, published 2025).
Where a name gives a salt, the structure may show the parent alone.

Conditions: obtained from PubChem

| SMILES | LogP | Topological Polar Surface Area (Å^2) |
| --- | --- | --- |
| CCCCC(CC)COCCO (stereo not shown) [2-2(2-Ethylhexyloxy)ethanol] | 2.5 | 29.5 Å^2 |
| CCCCC(CC)COC(=O)[C@H](C)O (stereo partly drawn) [2-Ethylhexyl Lactate, 2-Ethylhexyl L-Lactate] | 3 | 46.5 Å^2 |
| OCc1ccccc1 [Benzyl Alcohol] | – | 20.2 Å^2 |
| CCCCCCOCCOCCO [Diethylene glycol monohexyl ether] | – | 38.7 Å^2 |
| CC(C)COC(=O)CCCCC(=O)OCC(C)C [Diisobutyl Adipate] | 3.2 | 52.6 Å^2 |
| CCCCCCCCCCCCO [Dodecanol (Lauryl Alcohol), Dodecanol] | 5.1 | 20.2 Å^2 |
| CCOC(=O)C(C)O (stereo not shown) [Ethyl Lactate] | 0.2 | 46.5 Å^2 |
| CC(=O)OCC(COC(C)=O)OC(C)=O [Glycerol Triacetate] | 0.2 | 78.9 Å^2 |
| CCCCCCO [Hexanol] | – | 20.2 Å^2 |
| C=C(C)[C@H]1CC=C(C)CC1 [Limonene] | 3.4 | 0 Å^2 |
| CCCCCCCC(=O)O [Octanoic acid] | – | 37.3 Å^2 |
| CC(O)COc1ccccc1 (stereo not shown) [Propylene glycol phenyl ether] | 1.7 | 38.7 Å^2 |
| Cc1ccccc1 [Toluene] | – | 0 Å^2 |
| CCOC(=O)CC(O)(CC(=O)OCC)C(=O)OCC [Triethyl Citrate] | 0.1 | 99.1 Å^2 |
| CCCCOC(C)COC(C)COC(C)CO (stereo not shown) [Tripropylene glycol butyl ether] | 2.9 | 47.9 Å^2 |
